This assay deals with IRAK4 (Homo sapiens (Human), UniProt Q9NWZ3). Description: IRAK4 Inhibition Assay. It counts as biochemical. Conditions: ATP 500 μM; IRAK4 0.6 nM. The procedure:
The assays were performed in U-bottom 384-well plates. The final assay volume was 30 μL prepared from 15 μL additions of enzyme and substrates (fluoresceinated peptide and ATP) and test compounds in assay buffer (20 mM HEPES pH 7.2, 10 mM MgCl2, 0.015% Brij 35 and 4 mM DTT). The reaction was initiated by the combination of IRAK4 with substrates and test compounds. The reaction mixture was incubated at room temperature for 60 min. and terminated by adding 45 μL of 35 mM EDTA to each sample. The reaction mixture was analyzed on the Caliper LABCHIP® 3000 (Caliper, Hopkinton, Mass.) by electrophoretic separation of the fluorescent substrate and phosphorylated product. Inhibition data were calculated by comparison to no enzyme control reactions for 100% inhibition and vehicle-only reactions for 0% inhibition. The final concentrations of reagents in the assays are ATP, 500 μM; FL-IPTSPITTTYFFFKKK peptide 1.5 μM; IRAK4, 0.6 nM; and DMSO, 1.6%.
IRAK4, sequence (Q9NWZ3 whole entry, species assumed): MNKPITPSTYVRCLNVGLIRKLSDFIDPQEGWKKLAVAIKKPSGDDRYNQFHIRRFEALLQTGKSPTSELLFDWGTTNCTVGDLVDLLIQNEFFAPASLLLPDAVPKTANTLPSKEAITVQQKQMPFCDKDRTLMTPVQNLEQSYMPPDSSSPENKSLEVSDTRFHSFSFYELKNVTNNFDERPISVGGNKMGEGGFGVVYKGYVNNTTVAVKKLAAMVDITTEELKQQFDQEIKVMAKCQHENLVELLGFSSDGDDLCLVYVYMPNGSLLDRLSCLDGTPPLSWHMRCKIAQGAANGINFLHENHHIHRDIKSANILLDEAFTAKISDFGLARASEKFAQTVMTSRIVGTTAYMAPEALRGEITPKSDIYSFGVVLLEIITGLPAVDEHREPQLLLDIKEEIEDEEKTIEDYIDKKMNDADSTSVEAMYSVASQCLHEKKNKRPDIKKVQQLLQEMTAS
In the case of `CCCn1cc(-c2cnc(-n3cnc4cc(C#N)cnc43)cc2NC2CCOCC2)nn1` [Example 50, 3-(5-(1-propyl-1H-1,2,3-triazol-4-yl)-4-((tetrahydro-2H-pyran-4-yl)amino)pyridin-2-yl)-3H-imidazo[4,5-b]pyridine-6-carbonitrile], the IC50 – broadly, the concentration needed to halve the response being measured – amounted to 5 nM.

Turning to `CCCn1cc(-c2cnc(-n3ncc4cc(C#N)c(N)nc43)cc2NC2CCOCC2)nn1` [Example 51, 6-amino-1-(5-(1-propyl-1H-1,2,3-triazol-4-yl)-4-((tetrahydro-2H-pyran-4-yl)amino)pyridin-2-yl)-1H-pyrazolo[3,4-b]pyridine-5-carbonitrile], the concentration for half-maximal inhibition (IC50) amounted to 3 nM.

As to `CCCn1cc(-c2cnc(-n3cnc4cc(C#N)cnc43)cc2NCC)nn1` [Example 55, 3-(4-(ethylamino)-5-(1-propyl-1H-1,2,3-triazol-4-yl)pyridin-2-yl)-3H-imidazo[4,5-b]pyridine-6-carbonitrile], the IC50 amounted to 8 nM.

Turning to `CCCn1cc(-c2cnc(-n3ncc4cc(C#N)cnc43)cc2Nc2cnn(CC)c2)nn1` [Example 58, 1-(4-((1-ethyl-1H-pyrazol-4-yl)amino)-5-(1-propyl-1H-1,2,3-triazol-4-yl)pyridin-2-yl)-1H-pyrazolo [3,4-b]pyridine-5-carbonitrile], the IC50 amounted to 93 nM.

Consider `CCCn1cc(-c2cnc(-n3cnc4cc(C#N)cnc43)cc2Nc2cnn(CC(F)F)c2)nn1` [Example 61, 3-(4-((1-(2,2-difluoroethyl)-1H-pyrazol-4-yl)amino)-5-(1-propyl-1H-1,2,3-triazol-4-yl)pyridin-2-yl)-3H-imidazo[4,5-b]pyridine-6-carbonitrile], for which the half-inhibitory concentration (IC50) is 7 nM.

For `CC(C)Nc1cc(-n2cnc3cc(C#N)cnc32)ncc1-c1cn(CC(C)(C)O)nn1` [Example 67, 3-(5-(1-(2-hydroxy-2-methylpropyl)-1H-1,2,3-triazol-4-yl)-4-(isopropylamino)pyridin-2-yl)-3H-imidazo[4,5-b]pyridine-6-carbonitrile], the concentration for half-maximal inhibition (IC50) amounted to 32 nM.

With `CC(C)Nc1cc(-n2cnc3cc(C#N)cnc32)ncc1-c1cn(C[C@@H](C)O)nn1` [Example 68, (R)-3-(5-(1-(2-hydroxypropyl)-1H-1,2,3-triazol-4-yl)-4-(isopropylamino)pyridin-2-yl)-3H-imidazo[4,5-b]pyridine-6-carbonitrile], the 50% inhibitory concentration (IC50) amounted to 14 nM.

Regarding `CCNc1cc(-n2ncc3cc(C#N)cnc32)ncc1-c1cn(C[C@H](C)O)nn1` [Example 71, (S)-1-(4-(ethylamino)-5-(1-(2-hydroxypropyl)-1H-1,2,3-triazol-4-yl)pyridin-2-yl)-1H-pyrazolo[3,4-b]pyridine-5-carbonitrile], the IC50 is 40 nM.

For the molecule `CCNc1cc(-n2cnc3cc(C#N)cnc32)ncc1-c1cn(C[C@H](C)O)nn1` [Example 72, (S)-3-(4-(ethylamino)-5-(1-(2-hydroxypropyl)-1H-1,2,3-triazol-4-yl)pyridin-2-yl)-3H-imidazo [4,5-b]pyridine-6-carbonitrile], the half-maximal inhibitory concentration (IC50) worked out at 52 nM.

For `CCOC(=O)Cn1cc(-c2cnc(-n3ncc4cc(C#N)cnc43)cc2NC(C)C)nn1` [Example 98, Ethyl 2-(4-(6-(5-cyano-1H-pyrazolo[3,4-b]pyridin-1-yl)-4-(isopropylamino)pyridin-3-yl)-1H-1,2,3-triazol-1-yl)acetate], the IC50 worked out at 2 nM.

On to `CC(C)Nc1cc(-n2ncc3cc(C#N)cnc32)ncc1-c1cn(C2CN(C(c3ccccc3)c3ccccc3)C2)nn1` [Example 100, 1-(5-(1-(1-benzhydrylazetidin-3-yl)-1H-1,2,3-triazol-4-yl)-4-(isopropylamino)pyridin-2-yl)-1H-pyrazolo[3,4-b]pyridine-5-carbonitrile], for which the IC50 was determined as 235 nM.

Regarding `CC(C)Nc1cc(-n2ncc3cc(C#N)cnc32)ncc1-c1cn(CC(=O)N2CCOCC2)nn1` [Example 101, 1-(4-(isopropylamino)-5-(1-(2-morpholino-2-oxoethyl)-1H-1,2,3-triazol-4-yl)pyridin-2-yl)-1H-pyrazolo[3,4-b]pyridine-5-carbonitrile], the IC50 is 5 nM.

As for `CC(C)Nc1cc(-n2ncc3cc(C#N)cnc32)ncc1-c1cn(-c2cccc(O)c2)nn1` [Example 103, 1-(5-(1-(3-hydroxyphenyl)-1H-1,2,3-triazol-4-yl)-4-(isopropylamino)pyridin-2-yl)-1H-pyrazolo[3,4-b]pyridine-5-carbonitrile], the IC50 is 172 nM.

Consider `CC(C)Nc1cc(-n2ncc3cc(C#N)cnc32)ncc1-c1cn(-c2ccc(F)c(C#N)c2)nn1` [Example 104, 1-(5-(1-(3-cyano-4-fluorophenyl)-1H-1,2,3-triazol-4-yl)-4-(isopropylamino)pyridin-2-yl)-1H-pyrazolo[3,4-b]pyridine-5-carbonitrile], for which the half-maximal inhibitory concentration (IC50) came to 399 nM.

With `CC(C)Nc1cc(-n2ncc3cc(C#N)cnc32)ncc1-c1cn([C@@H]2O[C@H](CO)[C@H](O)[C@H](O)[C@H]2O)nn1` [Example 105, 1-(4-(isopropylamino)-5-(1-((2R,3R,4S,5R,6R)-3,4,5-trihydroxy-6-(hydroxymethyl)tetrahydro-2H-pyran-2-yl)-1H-1,2,3-triazol-4-yl)pyridin-2-yl)-1H-pyrazolo[3,4-b]pyridine-5-carbonitrile], the IC50 is 55 nM.

With `Cc1nc2cc(Cn3cc(-c4cnc(-n5ncc6cc(C#N)cnc65)cc4NC(C)C)nn3)ccc2s1` [Example 106, 1-(4-(isopropylamino)-5-(1-((2-methylbenzo[d]thiazol-5-yl)methyl)-1H-1,2,3-triazol-4-yl)pyridin-2-yl)-1H-pyrazolo[3,4-b]pyridine-5-carbonitrile], the IC50 stood at 321 nM.

For `CC(C)Nc1cc(-n2ncc3cc(C#N)cnc32)ncc1-c1cn(Cc2ccccc2)nn1` [Example 107, 1-(5-(1-benzyl-1H-1,2,3-triazol-4-yl)-4-(isopropylamino)pyridin-2-yl)-1H-pyrazolo[3,4-b]pyridine-5-carbonitrile], the half-inhibitory concentration (IC50) turned out to be 15 nM.

Consider `CC(C)Nc1cc(-n2ncc3cc(C#N)cnc32)ncc1-c1cn(Cc2nc3ccccc3[nH]2)nn1` [Example 108, 1-(5-(1-((1H-benzo[d]imidazol-2-yl)methyl)-1H-1,2,3-triazol-4-yl)-4-(isopropylamino)pyridin-2-yl)-1H-pyrazolo[3,4-b]pyridine-5-carbonitrile], for which the half-maximal inhibitory concentration (IC50) amounted to 35 nM.

As to `CC(C)Nc1cc(-n2ncc3cc(C#N)cnc32)ncc1-c1cn(-c2ccc(F)cc2)nn1` [Example 109, 1-(5-(1-(4-fluorophenyl)-1H-1,2,3-triazol-4-yl)-4-(isopropylamino)pyridin-2-yl)-1H-pyrazolo[3,4-b]pyridine-5-carbonitrile], the IC50 amounted to 217 nM.

Regarding `COc1ccc(Cn2cc(-c3cnc(-n4ncc5cc(C#N)cnc54)cc3NC(C)C)nn2)cc1` [Example 110, 1-(4-(isopropylamino)-5-(1-(4-methoxybenzyl)-1H-1,2,3-triazol-4-yl)pyridin-2-yl)-1H-pyrazolo[3,4-b]pyridine-5-carbonitrile], the half-maximal inhibitory concentration (IC50) came to 75 nM.

Regarding `CC(C)Nc1cc(-n2ncc3cc(C#N)cnc32)ncc1-c1cn(-c2cccnc2C#N)nn1` [Example 111, 1-(5-(1-(2-cyanopyridin-3-yl)-1H-1,2,3-triazol-4-yl)-4-(isopropylamino)pyridin-2-yl)-1H-pyrazolo[3,4-b]pyridine-5-carbonitrile], the IC50 is 13 nM.

Consider `CC(C)Nc1cc(-n2ncc3cc(C#N)cnc32)ncc1-c1cn(Cc2ccc(F)cc2)nn1` [Example 112, 1-(5-(1-(4-fluorobenzyl)-1H-1,2,3-triazol-4-yl)-4-(isopropylamino)pyridin-2-yl)-1H-pyrazolo[3,4-b]pyridine-5-carbonitrile], for which the IC50 was 76 nM.

For the molecule `CC(C)Nc1cc(-n2ncc3cc(C#N)cnc32)ncc1-c1cn(-c2ccccc2)nn1` [Example 115, 1-(4-(isopropylamino)-5-(1-phenyl-1H-1,2,3-triazol-4-yl)pyridin-2-yl)-1H-pyrazolo[3,4-b]pyridine-5-carbonitrile], the IC50 was determined as 33 nM.

For `CC(C)Nc1cc(-n2ncc3cc(C#N)cnc32)ncc1-c1cn(CC2(O)CCN(C(=O)OC(C)(C)C)CC2)nn1` [Example 132, tert-butyl 4-((4-(6-(5-cyano-1H-pyrazolo[3,4-b]pyridin-1-yl)-4-(isopropylamino)pyridin-3-yl)-1H-1,2,3-triazol-1-yl)methyl)-4-hydroxypiperidine-1-carboxylate], the half-maximal inhibitory concentration (IC50) stood at 51 nM.

For the molecule `COc1ccc(OCC(O)Cn2cc(-c3cnc(-n4ncc5cc(C#N)cnc54)cc3NC(C)C)nn2)cc1` (stereo not shown) [Example 136, 1-(5-(1-(2-hydroxy-3-(4-methoxyphenoxy)propyl)-1H-1,2,3-triazol-4-yl)-4-(isopropylamino)pyridin-2-yl)-1H-pyrazolo[3,4-b]pyridine-5-carbonitrile], the 50% inhibitory concentration (IC50) is 27 nM.

With `CC(C)Nc1cc(-n2ncc3cc(C#N)cnc32)ncc1-c1cn(C2CNC2)nn1` [Example 138, 1-(5-(1-(azetidin-3-yl)-1H-1,2,3-triazol-4-yl)-4-(isopropylamino)pyridin-2-yl)-1H-pyrazolo[3,4-b]pyridine-5-carbonitrile], the half-inhibitory concentration (IC50) stood at 25 nM.

`CC(=O)N1CC(n2cc(-c3cnc(-n4ncc5cc(Cl)cnc54)cc3NC(C)C)nn2)C1` [Example 155, 1-(3-(4-(6-(5-chloro-1H-pyrazolo[3,4-b]pyridin-1-yl)-4-(isopropylamino)pyridin-3-yl)-1H-1,2,3-triazol-1-yl)azetidin-1-yl)ethanone]: the half-maximal inhibitory concentration (IC50) turned out to be 6 nM.

In the case of `CC(C)Nc1cc(-n2ncc3cc(Cl)cnc32)ncc1-c1cn(C)nn1` [Example 165, 2-(5-chloro-1H-pyrazolo[3,4-b]pyridin-1-yl)-N-isopropyl-5-(1-methyl-1H-1,2,3-triazol-4-yl)pyridin-4-amine], the concentration for half-maximal inhibition (IC50) turned out to be 25 nM.

(Values after patent publication US10294229B2, “Heteroaryl substituted aminopyridine compounds” (BRISTOL-MYERS SQUIBB COMPANY, priority 2015, dated 2019).)
